Laboratory results reported in patent US9919998B2, “Antibacterial agents: Nα-aroyl-N-aryl-phenylalaninamides” (priority 2014, dated 2018).
Values after ≈ are worked out from the molar mass of the structure shown.

How the values were obtained:
Type in all cases: cell-based
[1] = test system: Vero E6 ATCC CRL1586 cells; experiment: Mammalian-cell cytotoxicity, minimal cytotoxic concentration (CellTiter96)
Protocol: Minimal cytotoxic concentrations (MCCs) against mammalian cells in culture were determined using Vero E6 ATCC CRL1586 cells and the CellTiter96 assay kit (Promega, Inc.). […]

[2] = test system: Mycobacterium tuberculosis H37Rv; experiment: Microplate Alamar Blue assay (MABA) MIC, M. tuberculosis; details: read-out: MIC Mycobacterium tuberculosis H37Rv
From the text: (§1) Minimal inhibitory concentrations (MICs) in Mycobacterium tuberculosis H37Rv and Mycobacterium avium ATCC 25291 were quantified using microplate Alamar Blue assays as described (MABA; [Collins, L. & Franzblau, S. (1997) Microplate Alamar Blue assay versus BACTEC 460 system for high-throughput screening of compounds against Mycobacterium tuberculosis and Mycobacterium avium. Antimicrob. Agents Chemother. 41, 1004-1009]).

[3] = test system: Mycobacterium avium ATCC 25291; experiment: Microplate Alamar Blue assay (MABA) MIC, M. avium; details: ATCC25291, M. avium ATCC 25291
From the text: as §1

[4] = test system: Mycobacterium smegmatis ATCC 19420; experiment: Broth microdilution MIC, M. smegmatis; details: Mycolicibacterium smegmatis, ATCC19420, M. smegmatis ATCC 19420; read-out: MIC Mycobacterium smegmatis ATCC 19420
From the text: MICs in Mycobacterium smegmatis ATCC 19420 and Mycobacterium smegmatis ATCC 19420 derivatives were quantified using broth microdilution assays as described [Clinical and Laboratory Standards Institute (CLSI/NCCLS) (2009) Methods for Dilution Antimicrobial Susceptibility Tests for Bacteria That Grow Aerobically; Approved Standard, Eighth Edition. CLIS Document M07-A8 (CLIS, Wayne Pa.)].

Row | SMILES | MCC mammalian cells Vero E6 ATCC CRL1586 [1] [µg/mL] | MIC [2] [µg/mL] | MIC [3] [µg/mL] | MIC [4] [µg/mL]
1 | Cc1ccccc1C(=O)NC(Cc1ccccc1)C(=O)Nc1cccc2cc[nH]c12 (stereo not drawn) [IX-97, N-(1-((1H-indol-7-yl)amino)-1-oxo-3-phenylpropan-2-yl)-2-methylbenzamide] | 15 | 6.25 (≈ 15.7 µM) | 12.5 (≈ 31.4 µM) | 0.39 (≈ 0.981 µM)
2 | O=C(NC(Cc1ccccc1)C(=O)Nc1cccc2c1OCO2)c1cccs1 (stereo not drawn) [IX-98, N-(1-(benzo[d][1,3]dioxol-4-ylamino)-1-oxo-3-phenylpropan-2-yl)thiophene-2-carboxamide] | 13 | 6.25 (≈ 15.8 µM) | 3.12 (≈ 7.92 µM) | 0.195 (≈ 0.494 µM)
3 | O=C(NC(Cc1ccccc1)C(=O)Nc1cccc2c1OCO2)c1ccccc1F (stereo not drawn) [IX-99, N-(1-(benzo[d][1,3]dioxol-4-ylamino)-1-oxo-3-phenylpropan-2-yl)-2-fluorobenzamide] | >100 | 3.12 (≈ 7.69 µM) | 6.25 (≈ 15.4 µM) | 0.195 (≈ 0.48 µM)
4 | O=C(NC(Cc1ccccc1)C(=O)Nc1ccccc1OC(F)F)c1cccs1 (stereo not drawn) [IX-100, N-(1-((2-(difluoromethoxy)phenyl)amino)-1-oxo-3-phenylpropan-2-yl)thiophene-2-carboxamide] | 42 | 6.25 (≈ 15 µM) | 6.25 (≈ 15 µM) | 0.39 (≈ 0.936 µM)
5 | O=C(NC(Cc1ccccc1)C(=O)Nc1ccccc1OC(F)F)c1ccccc1F (stereo not drawn) [IX-101, N-(1-((2-(difluoromethoxy)phenyl)amino)-1-oxo-3-phenylpropan-2-yl)-2-fluorobenzamide] | >100 | 6.25 (≈ 14.6 µM) | 6.25 (≈ 14.6 µM) | 0.39 (≈ 0.91 µM)
6 | Cc1ccc(Br)cc1NC(=O)C(Cc1ccc(O)cc1)NC(=O)c1ccccc1 (stereo not drawn) [IX-103, N-(1-((5-bromo-2-methylphenyl)amino)-3-(4-hydroxyphenyl)-1-oxopropan-2-yl)benzamide] | 62 | 12.5 (≈ 27.6 µM) | 12.5 (≈ 27.6 µM) | 0.78 (≈ 1.72 µM)
7 | O=C(NC(Cc1ccccc1)C(=O)Nc1cccc2[nH]ccc12)c1cccs1 (stereo not drawn) [IX-104, N-(1-((1H-indol-4-yl)amino)-1-oxo-3-phenylpropan-2-yl)thiophene-2-carboxamide] | 33 | 25 (≈ 64.2 µM) | 50 (≈ 128 µM) | 0.39 (≈ 1 µM)
8 | O=C(NC(Cc1ccccc1)C(=O)Nc1ccccc1N1CCCC1)c1cccs1 (stereo not drawn) [IX-105, N-(1-oxo-3-phenyl-1-((2-(pyrrolidin-1-yl)phenyl)amino)propan-2-yl)thiophene-2-carboxamide] | >100 | 6.25 (≈ 14.9 µM) | 25 (≈ 59.6 µM) | 0.78 (≈ 1.86 µM)
9 | COc1cccc(NC(=O)C(Cc2ccccc2)NC(=O)c2cccs2)c1C (stereo not drawn) [IX-107, N-(1-((3-methoxy-2-methylphenyl)amino)-1-oxo-3-phenylpropan-2-yl)thiophene-2-carboxamide] | >100 | > 50 | 50 (≈ 127 µM) | 0.78 (≈ 1.98 µM)
10 | COc1cccc(NC(=O)C(Cc2ccccc2)NC(=O)c2ccccc2F)c1C (stereo not drawn) [IX-108, 2-fluoro-N-(1-((3-methoxy-2-methylphenyl)amino)-1-oxo-3-phenylpropan-2-yl)benzamide] | 80 | 12.5 (≈ 30.8 µM) | 25 (≈ 61.5 µM) | 0.78 (≈ 1.92 µM)
11 | Cc1ccccc1C(=O)NC(Cc1ccccc1)C(=O)Nc1cc(F)ccc1OCF (stereo not drawn) [IX-111, N-(1-((5-fluoro-2-(fluoromethoxy)phenyl)amino)-1-oxo-3-phenyl-propan-2-yl)-2-methylbenzamide] | 100 | 0.39 (≈ 0.919 µM) | 0.78 (≈ 1.84 µM) | 0.39 (≈ 0.919 µM)
12 | O=C(NC(Cc1ccccc1)C(=O)Nc1ccccc1OC(F)F)c1ccccc1Cl (stereo not drawn) [IX-119, 2-chloro-N-(1-((2-(difluoromethoxy)phenyl)amino)-1-oxo-3-phenylpropan-2-yl)benzamide] | 5.6 | 3.12 (≈ 7.02 µM) | 12.5 (≈ 28.1 µM) | 0.39 (≈ 0.877 µM)
13 | Cc1ccccc1C(=O)NC(Cc1ccccc1)C(=O)Nc1ccccc1OC(F)F (stereo not drawn) [IX-120, N-(1-((2-(difluoromethoxy)phenyl)amino)-1-oxo-3-phenylpropan-2-yl)-2-methylbenzamide] | >100 | 3.12 (≈ 7.36 µM) | 3.12 (≈ 7.36 µM) | 0.19 (≈ 0.448 µM)
14 | O=C(NC(Cc1ccccc1)C(=O)Nc1cccc2c1OC(F)(F)O2)c1ccccc1F (stereo not drawn) [IX-122, N-(1-((2,2-difluorobenzo[d][1,3]dioxol-4-yl)amino)-1-oxo-3-phenyl-propan-2-yl)-2-fluorobenzamide] | 94 | > 50 | > 50 | 1.56 (≈ 3.53 µM)
15 | O=C(NC(Cc1ccccc1)C(=O)Nc1cccc2c1OC(F)(F)O2)c1cccs1 (stereo not drawn) [IX-124, N-(1-((2,2-difluorobenzo[d][1,3]dioxol-4-yl)amino)-1-oxo-3-phenyl-propan-2-yl)thiophene-2-carboxamide] | 38 | > 50 | > 50 | 0.78 (≈ 1.81 µM)
16 | O=C(NC(Cc1ccccc1)C(=O)Nc1cccc2[nH]ncc12)c1ccccc1F (stereo not drawn) [IX-128, N-(1-((1H-indazol-4-yl)amino)-1-oxo-3-phenylpropan-2-yl)-2-fluorobenzamide] | 58 | 12.5 (≈ 31.1 µM) | 25 (≈ 62.1 µM) | 0.39 (≈ 0.969 µM)
17 | O=C(NC(Cc1ccccc1)C(=O)Nc1ccccc1N1CCSCC1)c1ccccc1 (stereo not drawn) [IX-149, N-(1-oxo-3-phenyl-1-((2-thiomorpholinophenyl)amino)propan-2-yl)-benzamide] | >100 | 3.12 (≈ 7.01 µM) | > 50 | 0.095 (≈ 0.213 µM)
18 | O=C(NC(Cc1ccccc1)C(=O)Nc1ccccc1N1CCNCC1)c1ccccc1 (stereo not drawn) [IX-150, N-(1-oxo-3-phenyl-1-((2-(piperazin-1-yl)phenyl)amino)propan-2-yl)-benzamide] | 38 | 6.25 (≈ 14.6 µM) | 3.12 (≈ 7.29 µM) | 0.39 (≈ 0.91 µM)
19 | CN1CCN(c2ccccc2NC(=O)C(Cc2ccccc2)NC(=O)c2ccccc2)CC1 (stereo not drawn) [IX-151, N-(1-((2-(4-methylpiperazin-1-yl)phenyl)amino)-1-oxo-3-phenyl-propan-2-yl)benzamide] | 35 | 12.5 (≈ 28.2 µM) | 12.5 (≈ 28.2 µM) | 0.78 (≈ 1.76 µM)
20 | O=C(NC(Cc1ccccc1)C(=O)Nc1ccccc1N1CCOCC1)c1ccccc1F (stereo not drawn) [IX-152, 2-fluoro-N-(1-((2-morpholinophenyl)amino)-1-oxo-3-phenylpropan-2-yl)benzamide] | 90 | 1.56 (≈ 3.49 µM) | 3.12 (≈ 6.98 µM) | 0.073 (≈ 0.163 µM)
21 | Cc1ccccc1C(=O)NC(Cc1ccccc1)C(=O)Nc1ccccc1N1CCOCC1 (stereo not drawn) [IX-153, 2-methyl-N-(1-((2-morpholinophenyl)amino)-1-oxo-3-phenylpropan-2-yl)benzamide] | 84 | 0.78 (≈ 1.76 µM) | 1.56 (≈ 3.52 µM) | 0.036 (≈ 0.0812 µM)
22 | O=C(NC(Cc1ccc(O)cc1)C(=O)Nc1ccccc1N1CCOCC1)c1ccccc1 (stereo not drawn) [IX-154, N-(3-(4-hydroxyphenyl)-1-((2-morpholinophenyl)amino)-1-oxo-propan-2-yl)benzamide] | >100 | 1.56 (≈ 3.5 µM) | 1.56 (≈ 3.5 µM) | 0.095 (≈ 0.213 µM)
23 | O=C(NC(Cc1ccc(O)cc1)C(=O)Nc1ccccc1N1CCOCC1)c1ccccc1F (stereo not drawn) [IX-155, 2-fluoro-N-(3-(4-hydroxyphenyl)-1-((2-morpholinophenyl)amino)-1-oxopropan-2-yl)benzamide] | 77 | 1.56 (≈ 3.37 µM) | 12.5 (≈ 27 µM) | 0.195 (≈ 0.421 µM)
24 | Cc1ccccc1C(=O)NC(Cc1ccc(O)cc1)C(=O)Nc1ccccc1N1CCOCC1 (stereo not drawn) [IX-156, N-(3-(4-hydroxyphenyl)-1-((2-morpholinophenyl)amino)-1-oxopropan-2-yl)-2-methylbenzamide] | 81 | 1.56 (≈ 3.39 µM) | 3.12 (≈ 6.8 µM) | 0.095 (≈ 0.207 µM)
